Assay results as given in the supplement of paper PMC10307832.

Key:
Assay in all cases: relative viability (nuclei count vs DMSO), 5 days (fraction); higher = more cells survive
[1] = compound: CN(C)CC1=CC(=CC=C1)N=C(C2=CC=CC=C2)C3=C(NC4=C3C=CC(=C4)C(=O)N(C)C)O + CC(C)C[C@H](NC(=O)[C@H](Cc1ccccc1)NC(=O)c1cnccn1)B(O)O [Bortezomib] (partner 0.002 µM)
Summary of the method: (§1)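 Five library-drug doses in √10 steps were combined with a fixed anchor-drug dose, or a single drug was given alone, by pin tool to lung cancer cell lines in 1536-well plates the day after seeding. Nuclei were stained and counted after 5 days. Relative viability is the nuclei count in treated wells over that in vehicle wells, taken as the median of duplicate plates.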

[2] = compound: CN(C)CC1=CC(=CC=C1)N=C(C2=CC=CC=C2)C3=C(NC4=C3C=CC(=C4)C(=O)N(C)C)O + Cc1nc(NC(=O)N2CCC[C@H]2C(N)=O)sc1-c1ccnc(C(C)(C)C(F)(F)F)c1 [Alpelisib] (partner 2 µM)
Summary of the method: as §1

[3] = compound: CN(C)CC1=CC(=CC=C1)N=C(C2=CC=CC=C2)C3=C(NC4=C3C=CC(=C4)C(=O)N(C)C)O + Cc1nc(Nc2ncc(C(=O)Nc3c(C)cccc3Cl)s2)cc(N2CCN(CCO)CC2)n1 [Dasatinib] (partner 0.075 µM)
Summary of the method: as §1

[4] = compound: CN(C)CC1=CC(=CC=C1)N=C(C2=CC=CC=C2)C3=C(NC4=C3C=CC(=C4)C(=O)N(C)C)O + CC(=O)c1c(C)c2cnc(Nc3ccc(N4CCNCC4)cn3)nc2n(C2CCCC2)c1=O [Palbociclib] (partner 0.5 µM)
Summary of the method: as §1

Cell Line	relative viability ([1]; first compound 0.253 µM)	relative viability ([1]; first compound 0.8 µM)	relative viability ([1]; first compound 8 µM)	relative viability ([2]; first compound 0.08 µM)	relative viability ([2]; first compound 0.253 µM)	relative viability ([2]; first compound 0.8 µM)	relative viability ([2]; first compound 2.53 µM)	relative viability ([2]; first compound 8 µM)	relative viability ([3]; first compound 0.08 µM)	relative viability ([3]; first compound 0.253 µM)	relative viability ([3]; first compound 0.8 µM)	relative viability ([3]; first compound 2.53 µM)	relative viability ([3]; first compound 8 µM)	relative viability ([4]; first compound 0.08 µM)	relative viability ([4]; first compound 0.253 µM)	relative viability ([4]; first compound 0.8 µM)	relative viability ([4]; first compound 2.53 µM)	relative viability ([4]; first compound 8 µM)	relative viability ([1]; first compound 0.08 µM)	relative viability ([1]; first compound 2.53 µM)
CAL-12T	1.02	1.03	1.08	1.19	1.29	1.18	1.11	1.15	0.488	0.48	0.421	0.363	0.304	0.436	0.431	0.208	0.524	0.43	–	–
NCI-H1437	0.63	0.615	0.56	1.01	0.996	0.951	0.906	0.971	0.393	0.402	0.392	0.336	0.416	0.339	0.365	0.317	0.331	0.368	0.462	0.482
RERF-LC-KJ	1.12	1.07	1.02	0.838	0.843	0.732	0.785	0.928	0.931	0.831	0.876	0.749	0.793	1.08	1.05	1.01	0.992	0.982	1.36	1.01
HCC-827	1.03	1.08	1.05	1.06	1.04	0.93	0.923	0.875	0.382	0.25	0.203	0.294	0.236	0.516	0.385	0.38	0.52	0.472	1.08	1.08
NCI-H322M	1.14	1.19	1.26	0.768	0.714	0.695	0.797	0.708	0.253	0.266	0.251	0.247	0.252	0.448	0.48	0.45	0.442	0.432	1.25	1.16
UMC-11	0.645	0.725	0.698	0.972	0.882	1.12	0.923	0.968	0.507	0.414	0.45	0.445	0.407	0.351	0.311	0.326	0.306	0.291	0.744	0.577
EPLC-272H	1.16	0.903	1.15	0.935	0.872	0.825	1.06	0.856	0.419	0.334	0.304	0.382	0.357	0.309	0.35	0.269	0.357	0.301	0.949	1.02
NCI-H1666	0.945	0.989	0.816	1.07	0.98	1.01	1.18	0.946	0.826	0.836	0.907	0.747	0.843	0.617	0.652	0.684	0.681	0.73	0.865	0.976
NCI-H650	0.993	0.767	0.661	1.05	0.956	1.2	0.945	0.825	0.521	0.487	0.447	0.461	0.447	0.319	0.371	0.387	0.355	0.364	0.695	0.717
LU99A	1.21	1.15	0.911	0.486	0.579	0.497	0.559	0.364	0.578	0.646	0.611	0.401	0.373	0.392	0.417	0.457	0.401	0.351	1.13	1.09
HARA	1.1	1.06	1.05	0.79	0.824	0.715	0.788	0.713	0.227	0.306	0.231	0.258	0.241	0.242	0.223	0.247	0.302	0.236	1.06	1.02
NCI-H1355	1.26	1.11	1.08	0.802	0.724	0.681	0.838	0.849	0.776	0.776	0.538	0.82	0.737	0.425	0.399	0.305	0.4	0.4	1.24	1.28
LCLC-97TM1	0.942	0.504	1.35	0.286	0.203	0.293	0.324	0.343	0.816	0.922	0.785	0.786	0.821	0.199	0.224	0.258	0.254	0.299	0.528	0.605
A-427	0.941	1.02	0.98	1.04	1.04	1.09	1.03	1.07	0.741	0.698	0.653	0.791	0.679	0.558	0.5	0.508	0.505	0.465	0.986	0.935
